Results taken from paper PMC8781238 (European journal of medicinal chemistry, 2020).
“Also recorded” adds a separate entry of the source.

What was measured:
[1] = system: U-251 MG human glioblastoma cells; assay: In vitro cell viability assay; assay type: cell-based; conditions: 125 µM, 24 hours incubation; for Antitumor activity on U-251 MG cell viability (in words): compared with compound 7 (ABC294640)
SphK2 = conditions: cited from earlier work
SphK1 = conditions: read-out: SphK1 IC50; cited from earlier work
recombinant human SphK2 = target: T1, recombinant human SphK2 (Homo sapiens, UniProt Q9NRA0); assay: ADP-Glo kinase assay, SphK2; conditions: comparison of SphK1 and SphK2 activity at 125 µM compound (Fig. 5)
T1 sequence (Q9NRA0 1-654): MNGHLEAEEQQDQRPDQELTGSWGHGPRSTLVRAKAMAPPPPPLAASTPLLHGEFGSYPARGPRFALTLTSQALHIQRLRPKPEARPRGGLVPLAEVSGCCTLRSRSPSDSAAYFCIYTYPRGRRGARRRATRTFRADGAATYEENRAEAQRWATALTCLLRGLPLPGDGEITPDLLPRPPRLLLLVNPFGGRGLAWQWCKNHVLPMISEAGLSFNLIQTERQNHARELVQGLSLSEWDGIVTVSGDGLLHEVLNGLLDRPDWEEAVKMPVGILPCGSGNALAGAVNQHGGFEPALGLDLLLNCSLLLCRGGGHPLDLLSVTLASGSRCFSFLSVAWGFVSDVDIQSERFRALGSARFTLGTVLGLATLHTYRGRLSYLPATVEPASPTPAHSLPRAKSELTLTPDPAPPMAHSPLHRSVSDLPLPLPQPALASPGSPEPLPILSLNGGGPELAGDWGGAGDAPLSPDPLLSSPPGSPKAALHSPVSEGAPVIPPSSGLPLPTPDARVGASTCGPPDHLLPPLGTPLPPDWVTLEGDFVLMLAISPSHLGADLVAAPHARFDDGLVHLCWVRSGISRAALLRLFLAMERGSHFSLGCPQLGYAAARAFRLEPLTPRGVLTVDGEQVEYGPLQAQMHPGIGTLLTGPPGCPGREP

Row | Structure (SMILES) | Selectivity/specificity for SphK2 over SphK1 (in words) (recombinant human SphK2) | Antitumor activity on U-251 MG cell viability (in words) [1] | other results
1 | O=C(NCc1ccncc1)C12CC3CC(C1)CC(c1ccc(Cl)cc1)(C3)C2 [Compound 7] |  |  | Reduction of cell viability of U-251 MG cells [1]: approximately 50%; IC50 (SphK2; read-out: SphK2 IC50): ~60 µM; IC50 (SphK1): ≥ 100 µM
2 | CCCCc1cn(Cc2ccc(-c3noc(C[C@@H]4CCCN4C(=N)N)n3)cc2)nn1.Cl [Compound 21d, (S)-2-((3-(4-((4-Butyl-1H-1,2,3-triazol-1-yl)methyl)phenyl)-1,2,4-oxadiazol-5-yl)methyl)pyrrolidine-1-carboximidamide hydrochloride] | lowest specificity; also recorded: no selective |  | 
3 | COc1ccc(-c2cn(Cc3ccc(-c4noc([C@@H]5CCCN5C(=N)N)n4)cc3)nn2)cc1.Cl [Compound 25d] |  | comparable reduction of viability | 
4 | Cl.N=C(N)N1CCC[C@H]1Cc1nc(-c2ccc(Cn3cc(-c4ccc(C(F)(F)F)cc4)nn3)cc2)no1 [Compound 21b, (S)-2-((3-(4-((4-(4-(Trifluoromethyl)phenyl)-1H-1,2,3-triazol-1-yl)methyl)phenyl)-1,2,4-oxadiazol-5-yl)methyl)-pyrrolidine-1-carboximidamide hydrochloride] | lowest specificity; also recorded: no selective | highest anti-tumor activity; also recorded: strongest antitumor activity | 
5 | Cl.N=C(N)N1CCC[C@H]1c1nc(-c2ccc(Cn3cc(-c4ccc(C(F)(F)F)cc4)nn3)cc2)no1 [Compound 25b] |  | highest anti-tumor activity; also recorded: tremendously decrease the viability; also recorded: strongest antitumor activity; also recorded: higher antitumor activity | 
6 | COc1ccc(-c2cn(Cc3ccc(-c4noc(C[C@@H]5CCCN5C(=N)N)n4)cc3)nn2)cc1.Cl [Compound 21e, (S)-2-((3-(4-((4-(4-Methoxyphenyl)-1H-1,2,3-triazol-1-yl)methyl)phenyl)-1,2,4-oxadiazol-5-yl)methyl)pyrrolidine-1-carboximidamide hydrochloride] | high selectivity; also recorded: highest specificity | comparable reduction of viability | 
7 | Cl.N=C(N)N1CCC[C@H]1c1nc(-c2ccc(Cn3cc(C4CC4)nn3)cc2)no1 [Compound 25h] | high selective |  | 
8 | Cl.N=C(N)C1(c2nc(-c3ccc(Cn4cc(-c5ccccc5)nn4)cc3)no2)CC1 [Compound 29a, 1-(3-(4-((4-Phenyl-1H-1,2,3-triazol-1-yl)methyl)phenyl)-1,2,4-oxadiazol-5-yl)cyclopropanecarboximidamide hydrochloride] | highly selective |  | 
9 | Cl.N=C(N)N1CCC[C@H]1Cc1nc(-c2ccc(Cn3cc(C4CC4)nn3)cc2)no1 [Compound 21f, (S)-2-((3-(4-((4-Cyclopropyl-1H-1,2,3-triazol-1-yl)methyl)phenyl)-1,2,4-oxadiazol-5-yl)methyl)pyrrolidine-1-carboximidamide hydrochloride] | lowest specificity; also recorded: no selective |  | 
10 | N=C(N)N1CCC[C@H]1Cc1nc(-c2ccc(Nc3nc(-c4cccc(C(F)(F)F)c4)cs3)cc2)no1 [Compound 13] |  |  | Ki (SphK2; read-out: SphK2 Ki): 0.09 µM
11 | Cl.N=C(N)N1CCC[C@H]1Cc1nc(-c2ccc(Cn3cc(-c4ccccc4)nn3)cc2)no1 [Compound 21a, (S)-2-((3-(4-((4-Phenyl-1H-1,2,3-triazol-1-yl)methyl)phenyl)-1,2,4-oxadiazol-5yl)methyl)pyrrolidine-1-carboximidamide hydrochloride] |  | highest anti-tumor activity; also recorded: strongest antitumor activity | 
12 | Cl.N=C(N)N1CCC[C@H]1Cc1nc(-c2ccc(Cn3cc(-c4ccccn4)nn3)cc2)no1 [Compound 21c, (S)-2-((3-(4-((4-(Pyridin-2-yl)-1H-1,2,3-triazol-1-yl)methyl)phenyl)-1,2,4-oxadiazol-5-yl)methyl)pyrrolidine-1-carboximidamide hydrochloride] | high selectivity; also recorded: highest specificity |  | 
13 | CCCCc1cn(Cc2ccc(-c3noc([C@@H]4CCCN4C(=N)N)n3)cc2)nn1.Cl [Compound 25f] | high selective |  | 
14 | Cl.Cn1cc(-c2cn(Cc3ccc(-c4noc(C[C@@H]5CCCN5C(=N)N)n4)cc3)nn2)cn1 [Compound 21g, (S)-2-((3-(4-((4-(1-Methyl-1H-pyrazol-4-yl)-1H-1,2,3-triazol-1-yl)methyl)phenyl)-1,2,4-oxadiazol-5-yl)methyl)pyrrolidine-1-carboximidamide hydrochloride] | high selectivity; also recorded: highest specificity |  | 
15 | Cl.Cn1cc(-c2cn(Cc3ccc(-c4noc(C5(C(=N)N)CC5)n4)cc3)nn2)cn1 [Compound 29b] | highly selective |  | 
16 | Cl.N=C(N)N1CCC[C@H]1c1nc(-c2ccc(Cn3cc(-c4ccccn4)nn3)cc2)no1 [Compound 25c, (S)-2-(3-(4-((4-(Pyridin-2-yl)-1H-1,2,3-triazol-1-yl)methyl)phenyl)-1,2,4-oxadiazol-5-yl)pyrrolidine-1-carboximidamide hydrochloride] | lowest specificity |  | 
